Here are results for ten compounds from paper PMC10537604, “Development and Assessment of 1,5–Diarylpyrazole/Oxime Hybrids Targeting EGFR and JNK–2 as Antiproliferative Agents: A Comprehensive Study through Synthesis, Molecular Docking, and Evaluation” (Molecules, 2023).

Read-outs that look alike come from different tables or passages of the source.

Series [1] relates to human colorectal adenocarcinoma cell line DLD-1. Briefly: WST-8 antiproliferative assay, DLD-1. The format is cell-based. On the procedure:
(§1) Compounds 7a–j, 8a–j, 9a–c, and 10a–c were evaluated for in vitro anticancer activities against five different cancer cell lines, namely, human colorectal adenocarcinoma cell lines DLD-1, human cervical cancer cell line Hela, human pancreatic cancer cell line SUIT-2, human myelogenous leukemia cell line K562, and human hepatocellular carcinoma cell line HepG2 using WST-8 assay at concentrations of 100 µM to investigate the growth inhibition percent (GI%) of each compound using daunorubicin as a reference drug. […]. […] So, as a conclusion on the SAR study of those compounds as antiproliferative agents, the oxime moiety potentiated the anticancer activity and electron donating groups on R1 and R2 played an important role on this activity. Moreover, the sulfamoyl moiety on R3 seems to play a potential role in the activity of the prepared compounds (Table 1).
(§2) All selected compounds and daunorubicin were recorded as the minimum concentration required to inhibit half cell growth (IC50) and the results are listed in Table 2.
(§3) Evaluation of anticancer activity was performed according to the standard water-soluble tetrazolium-8 (WST-8) assay at the Faculty of Engineering, Yamagata University, Yonezawa, Japan, using an MTP-310 absorbance microplate reader. The EGFR inhibitory assay was carried out at the Faculty of Engineering, Yamagata University, Yonezawa, Japan, according to the protocol enzyme linked immunosorbent assay (ELISA) kits (Douset sandwich ELISA test, recombinant mouse EGFR). The JNK-2 inhibitory assay was performed at the Faculty of Engineering, Yamagata University, Yonezawa, Japan, according to the protocol of enzyme-linked immunosorbent assay (ELISA), the assay was carried out using the JNK-2 kit (Simple Step ELISA, pT183/Y185, Abcam Company, Cambridge, CB2 0AX, UK). Apoptosis and cell cycle analysis was performed at Faculty of medicine, Yamagata University, Yamagata, Japan, using BD FACS melody. Molecular docking was performed at the Nano Medical Engineering Laboratory, RIKEN Cluster for Pioneering Researchers, RIEKN, Japan, using ICM-Pro 3.8 software (MolSoft L.L.C., San Diego, CA, USA).
(§4) According to the standard water-soluble tetrazolium-8 (WST-8) assay, the current synthesized compounds have been tested for their anticancer activities against different five cancer cell lines; DLD-1, Hela, K562, SUIT-2, and HepG2 and daunorubicin was used as reference drug by the WST-8 assay. The five cells were maintained in a suspension culture, (Dulbecco’s modified eagle medium (DMEM) for SUIT-2, Hela, and HepG2 or PRIM for K562 and DLD), supplemented with 5% FBS (Fetal Bovine Serum) containing 1% of a penicillin-streptomycin (1:1) mixture. A 100 μL aliquot of cells (10,000 cells/mL) was added to a 96 well plate and incubated for 24 h at 37 °C in a humidified incubator containing 5% CO2 in the air. After 24 h, a 10 μL aliquot of test compound (concentrations varying in the range of 10–150 µM) was added to each of the 96 wells and incubated for 24 h. Then A 10 μL WST-8 solution (mixture of WST-8 and 1-methoxy PMS) was added to each well and the incubation continued for 3 h. The visible absorbance at 450 nm and 630 nm as the reference wavelength of each well was quantified using an MTP-310 absorbance microplate reader. Daunorubicin was used as a positive control. The results of cytotoxicity were recorded as growth inhibition percentages and as IC50 values.
For orientation: Tetrazolium dyes change colour on reduction, which living cells bring about.

Series [2] deals with human pancreatic cancer cell line SUIT-2. The series can be described thus: WST-8 antiproliferative assay, SUIT-2. The format is cell-based. The method, then: as §1, §2, §3, §4
Series [3] relates to human hepatocellular carcinoma cell line HepG2. The series can be described thus: WST-8 antiproliferative assay, HepG2. In kind it is cell-based. The method, then:
as §1, §2, §3, §4

The test system of series [4] is human cervical cancer cell line Hela. Briefly: WST-8 antiproliferative assay, Hela. The format is cell-based. Particulars: for inhibition at 100 µM: read-out: Growth Inhibition (GI%) Hela; for IC50: read-out: IC50 Hela. The method, then:
as §1, §2, §3
as §4, with “After 24 h, a 10 μL aliquot of test compound (concentrations varying in the range of 10–150 µM) was added to each of the 96 wells and incubated for 24 h.” left out

Series [5] concerns human myelogenous leukemia cell line K562. The series can be described thus: WST-8 antiproliferative assay, K562. Particulars: Homo sapiens. In kind it is cell-based. On the procedure: as §1, §2, §3
as §4, with “After 24 h, a 10 μL aliquot of test compound (concentrations varying in the range of 10–150 µM) was added to each of the 96 wells and incubated for 24 h.” left out

Setting [6] is: DLD-1, 100 µM, WST-8 assay, read-out: Growth Inhibition (GI%) DLD-1.
The mark [7] stands for this setting: SUIT-2, 100 µM, WST-8 assay, read-out: Growth Inhibition (GI%) SUIT-2.
Where [8] appears, read: HepG2, 100 µM, WST-8 assay, read-out: Growth Inhibition (GI%) HepG2.
Where [9] appears, read: K562, 100 µM, WST-8 assay, read-out: Growth Inhibition (GI%) K562.
[10] abbreviates: K562, WST-8 assay, six concentrations 1-100 µM, read-out: IC50 K562.
Where [11] appears, read: WST-8 assay, six concentrations 1-100 µM.

Broadly, the inhibition is the relative decrease from the control value, in per cent. The melting point is the temperature of the solid-liquid transition. `COc1cc(/C(C)=N/O)ccc1OC(=O)c1cc(-c2ccccc2)n(-c2ccccc2)n1` [Compound 8a, (E)–4–(1–(Hydroxyimino)ethyl)2–methoxyphenyl 1,5–diphenyl–1H–pyrazole–3–carboxylate] displayed a melting point of 167 to 170 °C. Moreover, the inhibition at 100 µM in series [1] (setting [6]) was 25.7%. Besides, the inhibition at 100 µM in series [2] (setting [7]) came to 77%. Further, the inhibition at 100 µM in series [3] (setting [8]) amounted to 0%. Further, in series [4] (100 µM, WST-8 assay), the inhibition at 100 µM amounted to 33%. Further, the inhibition at 100 µM in series [5] (setting [9]) was found to be 94%. Moreover, in series [5] (setting [10]), the IC50 came out at 22 µM.
In turn, `COc1cc(/C(C)=N/O)ccc1OC(=O)c1cc(-c2ccc(C)cc2)n(-c2ccccc2)n1` [Compound 8b, (E)–4–(1–(Hydroxyimino)ethyl)–2–methoxyphenyl 1–phenyl–5–p–tolyl–1H–pyrazole–3–carboxylate] registered a melting point of 123 to 125 °C. Further, the inhibition at 100 µM in series [1] (setting [6]) turned out to be 92%. Moreover, the inhibition at 100 µM in series [2] (setting [7]) was found to be 102%. Also, in series [3] (setting [8]), the inhibition at 100 µM was 107%. In series [4] (100 µM, WST-8 assay), the inhibition at 100 µM amounted to 60%. In addition, in series [4] (setting [11]), the IC50 turned out to be 32 µM. The inhibition at 100 µM in series [5] (setting [9]) turned out to be 99%. The IC50 in series [5] (setting [10]) is 13 µM.
Compound `COc1cc(/C(C)=N/O)ccc1OC(=O)c1cc(-c2ccc(Cl)cc2)n(-c2ccccc2)n1` [Compound 8d, (E)–4–(1–(Hydroxyimino)ethyl)–2–methoxyphenyl 5–(4–chlorophenyl)–1–phenyl–1H–pyrazole–3–carboxylate] came in with a melting point of 106 to 109 °C. Moreover, the inhibition at 100 µM in series [1] (DLD-1, read-out: Growth Inhibition (GI%) DLD-1) turned out to be 72%. In addition, the IC50 in series [1] (DLD-1, read-out: IC50 DLD-1) was determined as 14.4 µM. In addition, in series [2] (SUIT-2, read-out: Growth Inhibition (GI%) SUIT-2), the inhibition at 100 µM was 77%. Moreover, the inhibition at 100 µM in series [3] (HepG2, read-out: Growth Inhibition (GI%) HepG2) amounted to 98%. For the same compound, the IC50 in series [3] (HepG2, read-out: IC50 HepG2) turned out to be 23.3 µM. Further, in series [4], the inhibition at 100 µM amounted to 48% and the IC50 was determined as 57 µM. Moreover, in series [5] (K562, read-out: Growth Inhibition (GI%) K562), the inhibition at 100 µM worked out at 95%. The IC50 in series [5] (K562, read-out: IC50 K562, WST-8 assay, six concentrations 1-100 µM) came to 9 µM.
Compound `COc1ccc(-c2cc(C(=O)Oc3ccc(/C(C)=N/O)cc3OC)nn2-c2ccccc2)cc1OC` [Compound 8e, (E)–4–(1–(Hydroxyimino)ethyl)–2–methoxyphenyl 5–(3,4–dimethoxy phenyl)–1–phenyl–1H–pyrazole–3–carboxylate] returned a melting point of 115 to 118 °C. Besides, the inhibition at 100 µM in series [1] (setting [6]) came to 29.2%. Also, the inhibition at 100 µM in series [2] (setting [7]) stood at 83%. In addition, the inhibition at 100 µM in series [3] (setting [8]) is 99%. For the same compound, the inhibition at 100 µM in series [4] (100 µM, WST-8 assay) was 77%. The IC50 in series [4] (setting [11]) turned out to be 22 µM. In addition, the inhibition at 100 µM in series [5] (setting [9]) came out at 93%. The IC50 in series [5] (setting [10]) came to 20 µM.
The compound `COc1cc(/C(C)=N/O)ccc1OC(=O)c1cc(-c2ccccc2)n(-c2ccc(S(N)(=O)=O)cc2)n1` [Compound 8f, (E)–4–(1–(Hydroxyimino)ethyl)–2–methoxyphenyl 5–phenyl–1–(4–sulfamoyl phenyl)–1H–pyrazole–3–carboxylate] came in with a melting point of 122 to 124 °C. For the same compound, in series [1] (setting [6]), the inhibition at 100 µM was found to be 72.9%. In series [2] (setting [7]), the inhibition at 100 µM was 95%. For the same compound, the inhibition at 100 µM in series [3] (setting [8]) stood at 80%. Further, the inhibition at 100 µM in series [4] (100 µM, WST-8 assay) turned out to be 107%. Moreover, the IC50 in series [4] (setting [11]) turned out to be 22 µM. Further, in series [5] (setting [9]), the inhibition at 100 µM came to 76%. For the same compound, the IC50 in series [5] (setting [10]) came out at 15.6 µM.
Regarding `COc1cc(/C(C)=N/O)ccc1OC(=O)c1cc(-c2ccc(C)cc2)n(-c2ccc(S(N)(=O)=O)cc2)n1` [Compound 8g, (E)–4–(1–(Hydroxyimino)ethyl)–2–methoxyphenyl 1–(4–sulfamoylphenyl)–5–p–tolyl–1H–pyrazole–3–carboxylate], the inhibition at 100 µM in series [1] (setting [6]) was 85.8%; in series [2] (setting [7]), 96%; in series [3] (setting [8]), 93%; in series [4] (100 µM, WST-8 assay), 78%; in series [5] (setting [9]), 87%. Moreover, the IC50 in series [4] (setting [11]) turned out to be 8 µM; in series [5] (setting [10]), 7.6 µM.
`COc1ccc(-c2cc(C(=O)Oc3ccc(/C(C)=N/O)cc3OC)nn2-c2ccc(S(N)(=O)=O)cc2)cc1` [Compound 8h, (E)–4–(1–(Hydroxyimino)ethyl)–2–methoxyphenyl 5–(4–methoxyphenyl)–1–(4–sulfamoyl phenyl)–1H–pyrazole–3–carboxylate] came in with a melting point of 125 to 127 °C. In addition, the inhibition at 100 µM in series [1] (setting [6]) came out at 52.3%. In series [2] (setting [7]), the inhibition at 100 µM came out at 73%. In series [3] (setting [8]), the inhibition at 100 µM amounted to 63%. Further, the inhibition at 100 µM in series [4] (100 µM, WST-8 assay) was determined as 7%. Also, the IC50 in series [4] (setting [11]) was found to be 74 µM. Besides, the inhibition at 100 µM in series [5] (setting [9]) stood at 78%. In series [5] (setting [10]), the IC50 worked out at 21 µM.
For the compound `COc1cc(/C(C)=N/O)ccc1OC(=O)c1cc(-c2ccc(Cl)cc2)n(-c2ccc(S(N)(=O)=O)cc2)n1` [Compound 8i, (E)–4–(1–(Hydroxyimino)ethyl)–2–methoxyphenyl 5–(4–chlorophenyl)–1–(4–sulfamoyl phenyl)–1H–pyrazole–3–carboxylate], the inhibition at 100 µM in series [1] (setting [6]) is 34%; in series [2] (setting [7]), 98%; in series [3] (setting [8]) it was 90%; in series [4] (100 µM, WST-8 assay) it was 100%; in series [5] (setting [9]), 97%. The IC50 in series [4] (setting [11]) is 13 µM; in series [5] (setting [10]), 71 µM.
With `C/C(=N\O)c1ccc(NC(=O)c2cc(-c3ccccc3)n(-c3ccc(S(N)(=O)=O)cc3)n2)cc1` [Compound 10a, (E)–N–(4–(1–(Hydroxyimino)ethyl)phenyl)–5–phenyl–1–(4–sulfamoylphenyl)–1H–pyrazole–3–carboxamide], the inhibition at 100 µM in series [1] (setting [6]) worked out at 99%; in series [2] (setting [7]), 88%; in series [3] (setting [8]) it was 72%; in series [4] (100 µM, WST-8 assay), 0%; in series [5] (setting [9]) it was 84%. For the same compound, in series [5] (setting [10]), the IC50 was 16 µM.
Turning to `COc1ccc(-c2cc(C(=O)Nc3ccc(/C(C)=N/O)cc3)nn2-c2ccc(S(N)(=O)=O)cc2)cc1OC` [Compound 10c, (E)–5–(3,4–Dimethoxyphenyl)–N–(4–(1–(hydroxyimino)ethyl)phenyl)–1–(4–sulfamoyl phenyl)–1H–pyrazole–3–carboxamide], the inhibition at 100 µM in series [1] (setting [6]) turned out to be 92.4%; in series [2] (setting [7]), 103%; in series [3] (setting [8]), 52%; in series [4] (100 µM, WST-8 assay), 75%; in series [5] (setting [9]), 87%. Further, the IC50 in series [4] (setting [11]) turned out to be 5 µM; in series [5] (setting [10]), 29 µM.
